Experimental data reported in patent publication US20030232986A1, “Inhibitors of caspases” (Vertex Pharmaceuticals Incorporated, priority 1998, published 2003).
Where a SMILES comes first, the peptide text is derived from it. The star is where a group is joined. Bz = O=C(c1ccccc1)*

Experiments:
[1] = tested on: Human whole blood, IL-1β production; test: Whole blood assay for IL-1β production; type: cell-based; conditions: LPS-stimulated whole blood, IL-1β by ELISA
Procedure, shortened: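 LPS-stimulated (5.0 ng/ml final) human whole blood incubated with test compound in saline (or plasma/PBS-5% DMSO for hydrophobic compounds) at 30° C for 16-18 hr. Plasma IL-1β then measured by ELISA at 1:200 dilution, against no-LPS, no-inhibitor and vehicle controls.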

Caspase-3 = target: T1, Caspase-3 (Homo sapiens, UniProt P42574); test: Caspase-3 enzyme inhibition (Ki); type: biochemical; conditions: substrate Ac-DEVD-pNA 60 μM, 8% glycerol in buffer, 37° C.
T1 sequence (P42574 29-175 limits assumed): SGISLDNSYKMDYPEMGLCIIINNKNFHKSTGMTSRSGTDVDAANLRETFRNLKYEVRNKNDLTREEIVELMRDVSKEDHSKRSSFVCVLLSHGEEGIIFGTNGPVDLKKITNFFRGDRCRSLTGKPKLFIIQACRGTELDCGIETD
T1 sequence (P42574 176-277 limits assumed): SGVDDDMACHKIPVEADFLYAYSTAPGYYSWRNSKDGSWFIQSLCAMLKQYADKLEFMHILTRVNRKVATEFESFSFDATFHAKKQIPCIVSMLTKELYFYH
Method: (§1) Ki values for test compounds with the various caspases were obtained by the method of Margolin et al. (J. Biol. Chem., 272 pp. 7223-7228 (1997)). Assays were performed in 10 mM Tris (Sigma Corp, St Louis Mo.) pH 7.5, 1 mM Dithiothreitol (DTT, Research Organic INC, Cleveland, Ohio) and 0.1% CHAPS (Pierce, Rockford Ill.) at 37° C. For caspase-3, a solution of 8% glycerol was added to the assay buffer to improve enzyme stability. A 65 μL aliquot of the assay buffer and 5 μL aliquot of the appropriate dilutions of inhibitor in DMSO where pipetted into a 96 well plate, treated with 10 μL of caspase, then diluted in assay buffer (0.5-40 nM active protein by active site titration). A control containing DMSO but no compound was included for each determination. The plates were then incubated for 15 minutes at 37° C., before addition of the appropriate substrate (20 μL, final concentration 1-4×KM, final assay volume 100 μL) to initiate the reaction. Reaction rates were measured at 37° C. either by following the time dependant increase in absorbance at 405 nm (for the pNA substrates) or in fluorescence (Ex 390, Em 460) (for the AMC substrates). The rates obtained were plotted against inhibitor concentration and the data fit to the Morrison tight-binding equation for competitive inhibitors (Morrison, J. F., Biochem. Biophys. Acta, 185 pp. 269-286 (1969)). The substrates used for the individual assays were as follows:
Caspase-3 Ac-DEVD-pNA (Bachem, King of Prussia, Pa.) (final concentration in assay, 60 μM)

Caspase-8 = Caspase-8 (Homo sapiens, UniProt Q14790); test: Caspase-8 enzyme inhibition (Ki); type: biochemical; conditions: substrate Ac-DEVD-pNA 80 μM, 37° C.
Method: as §1
Caspase-8 Ac-DEVD-pNA (Bachem, King of Prussia, Pa.) (final concentration in assay 80 μM).

[2] = In vivo rat clearance assay (i.v.); conditions: plasma, iv, i.v. via jugular vein
Method: Cannulations of the jugular and carotid vessels of rats under anesthesia are performed one day prior to the pharmacokinetic study. M. J. Free, R. A. Jaffee; ‘Cannulation techniques for the collection blood and other bodily fluids’; in: Animal Models; p. 480-495; N. J. Alexander, Ed.; Academic Press; (1978). Drug (10 mg/mL) is administered via the jugular vein in a vehicle usually consisting of: propylene glycol/saline, containing 100 mM sodium bicarbonate in a 1:1 ratio. Animals are dosed with 10-20 mg drug/kg and blood samples are drawn at 0, 2, 5, 7, 10, 15, 20, 30, 60, and 90 minutes from an indwelling carotid catheter. The blood is centrifuged to plasma and stored at −20° C. until analysis. Pharmacokinetic analysis of data is performed by non-linear regression using standard software such as RStrip (MicroMath Software, UT) and/or Pcnonlin (SCI Software, NC) to obtain clearance values.
Rat plasma is extracted with an equal volume of acetonitrile (containing 0.1% TFA). Samples are then centrifuged at approximately 1,000×g and the supernatant analyzed by gradient HPLC. A typical assay procedure is described below.
200 μL of plasma is precipitated with 200 μL of 0.1% trifluoroacetic acid (TFA) in acetonitrile and 10 μL of a 50% aqueous zinc chloride solution, vortexed then centrifuged at ^˜1000×g and the supernatant collected and analyzed by HPLC.
A standard curve is run at 20, 10, 5, 2 and 1 μg/mL concentrations.

Chain of Caspase-8 (Q14790 217-374 limits assumed): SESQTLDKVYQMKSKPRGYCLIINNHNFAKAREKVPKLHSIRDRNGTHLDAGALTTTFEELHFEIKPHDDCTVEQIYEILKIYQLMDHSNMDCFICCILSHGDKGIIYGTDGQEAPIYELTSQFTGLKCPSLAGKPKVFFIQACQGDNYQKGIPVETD
Chain of Caspase-8 (Q14790 385-479 limits assumed): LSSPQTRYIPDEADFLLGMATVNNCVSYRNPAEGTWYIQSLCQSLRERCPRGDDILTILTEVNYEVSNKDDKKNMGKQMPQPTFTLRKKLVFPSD

| IC50 [1] [nM] | Ki (Caspase-3) [nM] | Ki (Caspase-8) [nM] | clearance [2] [mL/min/kg] | Compound |
| --- | --- | --- | --- | --- |
| 2500 to 7500 |  |  |  | CC(C)[C@H](NC(=O)c1nccc2ccccc12)C(=O)N1CC[C@H](C)[C@H]1C(=O)N[C@H](C=O)CC(=O)O [Example 26c] |
| < 2500 |  |  |  | CC(C)[C@H](NC(=O)c1nccc2ccccc12)C(=O)N1C2CCCCC2C[C@H]1C(=O)N[C@H](C=O)CC(=O)O (stereo partly drawn) [Example 26e] |
| 2500 to 7500 |  |  |  | CC(C)[C@H](NC(=O)c1nccc2ccccc12)C(=O)N1[C@@H](c2ccccc2)CC[C@H]1C(=O)N[C@H](C=O)CC(=O)O [Example 26f] |
| < 2500 |  |  |  | C[C@H](NC(=O)c1ccc(N)c(Cl)c1)C(=O)N1CC(F)(F)C[C@H]1C(=O)N[C@H](C=O)CC(=O)O [Example 27a] |
| < 2500 | > 1000 |  |  | CC(C)[C@H](NC(=O)c1ccccc1)C(=O)N[C@@H](C)C(=O)N[C@H](C=O)CC(=O)O [Example 29a] (Bz-Val-Ala-Asp-aldehyde) |
| < 2500 |  |  |  | C[C@H](NC(=O)[C@@H](NC(=O)c1nccc2ccccc12)C(C)(C)C)C(=O)N[C@H](C=O)CC(=O)O [Example 29g] |
| 2500 to 7500 | 10 to 1000 |  |  | COc1ccc(C(=O)NC(C(=O)N2N=C(C(C)(C)C)SC2C(=O)NC(C=O)CC(=O)O)C(C)C)cc1 (stereo not drawn) [Example 46b] |
| < 2500 |  |  |  | C[C@H](NC(=O)c1cccc2c1-c1ccccc1C2=O)C(=O)N1CCC[C@H]1C(=O)N[C@H](C=O)CC(=O)O [Example 122a] |
| < 2500 | > 1000 | 10 to 1000 | 50 to 80 | C[C@H](NC(=O)c1ccc(N)c(Cl)c1)C(=O)N1CCC[C@H]1C(=O)N[C@H](C=O)CC(=O)O [Example 122b, 3-({-[2-(4-Amino-3-chloro-benzoylamino)-propionyl]-pyrrolidine-2-carbonyl}-amino)-4-oxo-butyric acid] |
| 2500 to 7500 |  |  | > 80 | COc1c(Cl)cc(C(=O)N[C@@H](C)C(=O)N2CCC[C@H]2C(=O)N[C@H](C=O)CC(=O)O)cc1Cl [Example 122c, 3-({1-[2-(3,5-Dichloro-4-methoxy-benzoylamino)-propionyl]-pyrrolidine-2-carbonyl}-amino)-4-oxo-butyric acid] |
| < 2500 | > 1000 | > 1000 | 50 to 80 | COc1c(C)cc(C(=O)N[C@@H](C)C(=O)N2CCC[C@H]2C(=O)N[C@H](C=O)CC(=O)O)cc1C [Example 122d, 3-({1-[2-(4-Methoxy-3,5-dimethyl-benzoylamino)-propionyl]-pyrrolidine-2-carbonyl}-amino)-4-oxo-butyric acid] |
| < 2500 | > 1000 | 10 to 1000 | < 50 | CC(=O)Nc1ccc(C(=O)N[C@@H](C)C(=O)N2CCC[C@H]2C(=O)N[C@H](C=O)CC(=O)O)cc1Cl [Example 122f, 3-({1-[2-(4-Acetylamino-3-chloro-benzoylamino)-propionyl]-pyrrolidine-2-carbonyl}-amino)-4-oxo-butyric acid] |
| < 2500 | > 1000 | 10 to 1000 |  | C[C@H](NC(=O)c1cc(Cl)c(O)c(Cl)c1)C(=O)N1CCC[C@H]1C(=O)N[C@H](C=O)CC(=O)O [Example 122k, 3-({1-[2-(3,5-Dichloro-4-hydroxy-benzoylamino)-propionyl]-pyrrolidine-2-carbonyl}-amino)-4-oxo-butyric acid] |

The remaining lines, values behind:

| Compound | IC50 [1] [nM] | Ki (Caspase-3) [nM] | Ki (Caspase-8) [nM] | clearance [2] [mL/min/kg] |
| --- | --- | --- | --- | --- |
| CC(C)[C@H](NC(=O)c1nccc2ccccc12)C(=O)N1CCC[C@H]1C(=O)N[C@H](C=O)CC(=O)O [Example 5c] | < 2500 |  |  |  |
| CC(C)[C@H](NC(=O)c1cccc2c1-c1ccccc1C2=O)C(=O)N1CCC[C@H]1C(=O)N[C@H](C=O)CC(=O)O [Example 5k] | 2500 to 7500 |  |  |  |
| CC(C)[C@H](NC(=O)c1cc(Cl)c(O)c(Cl)c1)C(=O)N1CCC[C@H]1C(=O)N[C@H](C=O)CC(=O)O [Example 5m] | < 2500 |  |  |  |
| Cc1cc(C(=O)N[C@@H](C)C(=O)N2CCC[C@H]2C(=O)N[C@H](C=O)CC(=O)O)cc(C)c1O [Example 7c] | < 2500 | > 1000 | > 1000 |  |
| C[C@H](NC(=O)c1nccc2ccccc12)C(=O)N1CCC[C@H]1C(=O)N[C@H](C=O)CC(=O)O [Example 7d] | 2500 to 7500 | > 1000 | 10 to 1000 | < 50 |
| COc1ccc(C(=O)N[C@@H](C)C(=O)N2CCC[C@H]2C(=O)N[C@H](C=O)CC(=O)O)cc1 [Example 7f] | 2500 to 7500 | > 1000 | > 1000 | 50 to 80 |
| COCC(=O)N1CCN(C(=O)[C@H](C)NC(=O)c2ccc(N)c(Cl)c2)[C@H](C(=O)N[C@H](C=O)CC(=O)O)C1 [Example 18f] | 2500 to 7500 |  |  |  |
| O=C[C@H](CC(=O)O)NC(=O)[C@@H]1CCCN1C(=O)[C@H](Cc1cccnc1)NC(=O)c1nccc2ccccc12 [Example 20f] | < 2500 |  |  |  |
| CSC[C@H](NC(=O)c1nccc2ccccc12)C(=O)N1CCC[C@H]1C(=O)N[C@H](C=O)CC(=O)O [Example 20g] | < 2500 |  |  |  |
| CS(=O)(=O)CC[C@H](NC(=O)c1nccc2ccccc12)C(=O)N1CCC[C@H]1C(=O)N[C@H](C=O)CC(=O)O [Example 20h] | < 2500 |  |  | 50 to 80 |
| CC[C@H](NC(=O)c1cc(Cl)c(O)c(Cl)c1)C(=O)N1CCC[C@H]1C(=O)N[C@H](C=O)CC(=O)O [Example 20m] | < 2500 |  |  | < 50 |
| CC(C)[C@H](NC(=O)c1ccccc1)C(=O)N1CC(c2ccccc2)[C@H]1C(=O)N[C@H](C=O)CC(=O)O (stereo partly drawn) [Example 24a] | 2500 to 7500 | > 1000 |  |  |
| CC(C)[C@H](NC(=O)c1nccc2ccccc12)C(=O)N1CC(c2ccccc2)[C@H]1C(=O)N[C@H](C=O)CC(=O)O (stereo partly drawn) [Example 24c] | 2500 to 7500 |  |  |  |
| COc1ccc(C(=O)NC(C(=O)N2CCCC2C(=O)NC(C=O)CC(=O)O)C(C)C)cc1 (stereo not drawn) [Example 57, 3-({1-[2-(4-Methoxy-benzoylamino)-3-methyl-butyryl]-pyrrolidine-2-carbonyl}-amino)-4-oxo-butyric acid] | > 7500 |  |  |  |
| Cc1cc(C(=O)N[C@H](C(=O)N2CCCC2C(=O)N[C@H](C=O)CC(=O)O)C(C)C)cc(C)c1O (stereo partly drawn) [Example 65, 3-({l-[2-(4-Hydroxy-3,5-dimethyl-benzoyiamino)-3-methyl-butyryl]-pyrrolidine-2-carbonyl}-amino)-4-oxo-butyric acid] | < 2500 |  |  | > 80 |
| COc1ccc(C(=O)NC(C(=O)N2CCCC2C(=O)NC(C=O)CC(=O)O)C(C)(C)C)cc1 (stereo not drawn) [Example 69, 3-({1-[2-(4-Methoxy-benzoylamino)-3,3-dimethyl-butyryl]-pyrrolidine-2-carbonyl}-amino)-4-oxo-butyric acid] | < 2500 | > 1000 | 10 to 1000 |  |
